The text below walks through data of patent US5198433A, “Lactamimides as calcium antagonists” (Merrell Dow Pharmaceuticals Inc., priority 1992, dated 1993).

In experiment [1] the target is T1, K^+ -depolarized guinea pig ileum or taenia (Cavia porcellus).
T1 construct: pieces of ileum, 2 cm in length, from male guinea pigs (200-400 g) were set up in isolated organ baths; from tissue; host or cells: strips of taenia from the caecum or pieces of ileum of male guinea pigs
The experiment is described as follows: Antagonism of Ca^++ -induced contractions of K^+ -depolarized guinea pig taenia or ileum. In kind it is cell-based. To be noted: for pA2: Table 1, guinea pig ileum or taenia, K^+ -depolarized, Ca^++ -induced contraction, Arunlakshana & Schild; for mean pA2 value (95% confidence interval), Schild plot / mean slope (±S.D.) of Schild plot: FIG. 6, 40 mM K^+ -depolarized guinea pig ileum. As to the method:
Strips of taenia from the caecum or pieces of ileum, 2 cm in length, from male guinea pigs (200-400 g) were set up in isolated organ baths in Ca^++ -free K^+ Tyrode's solution (mM NaCl 137, KCl 40, NaH2 PO4 0.4, NaHCO3 11.9, glucose 5.5) and gassed with 95% O2, 5% CO2 at 37° C. Contractions were measured with isotonic transducers with a 1 g load. Cumulative dose-response curves were obtained. Tissues were then washed and incubated with the compounds for 20-25 minutes and then Ca^++ concentration response curves re-established. […] Dose ratios were determined graphically at ED50 values from the Ca^++ dose-response curve and Schild plots were constructed to determine pA2 value using inverse regression line analysis. Alternatively, when only one concentration of an antagonist was used, pA2 values were calculated according to the method of J. M. Van Rossum, Arch. Int. Pharmacodyn Ther. 143: 299-330 (1963).

Experiment [2] deals with [^3 H]d-cis-diltiazem binding to rat whole brain membranes (calcium ion-channel protein). The experiment is described as follows: [^3 H]d-cis-Diltiazem binding assay (displacement from rat whole brain membranes). On the set-up: species or system rat (male Sprague-Dawley). To be noted: for pKi: Table 1, displacement of 3H diltiazem, rat brain membranes, n = 3, Cheng & Prusoff; for IC50: ligand […]. As to the method:
The whole brain from male Sprague-Dawley rats (200-300 g) was dissected and homogenized in cold 50 mM Tris-HCl buffer (pH 7.4) for 2 x 30 second periods by Polytron (Brinkmann, setting No. 5). The homogenate was washed 2 times (48,000 ×g for 10 minutes, 4° C.) with intermittent resuspension of the pellet in fresh buffer. The final pellet was resuspended to an original tissue concentration of 100 mg/ml in Tris-HCl buffer. […] The reaction was terminated by rapid filtration under a vacuum through 0.05% polyethylenimine-pretreated Whatman GF/B glass fiber filters. Filters were immediately washed 2 times with 4 ml of cold Tris-HCl buffer. Pretreatment of the filters with 0.05% polyethylenimine served to eliminate [^3 H]d-cis-diltiazem binding to the filter. The filters were dried and the radioactivity in the filters was extracted overnight in scintillation fluid.
(In general: Loss of bound radioactivity is the signal in a displacement assay; it reports binding, not function.)

For experiment [3], the target named is T2, [^3 H]nitrendipine binding to rat heart membranes (calcium ion-channel protein) (Rattus norvegicus, UniProt P22002).
T2 construct: Membranes were prepared from the hearts of male Sprague-Dawley rats; from tissue; host or cells: heart membranes of male Sprague-Dawley rats
The experiment is described as follows: [^3 H]Nitrendipine binding assay (enhancement of binding to rat heart membranes). On the set-up: species or system rat (male Sprague-Dawley). As to conditions: ligand 0.1 nM, mean ± SEM; for activity at 1 µM: 10^-6 M; for activity at 0.1 µM: 10^-7 M. The method, then:
Membranes were prepared from the hearts of male Sprague-Dawley rats and [^3 H]nitrendipine binding was conducted as described in detail by H. R. Lee, et al., J. Pharmacol Exp. Ther. 233:611-616, (1985), as modified by F. J. Ehlert, et al., Biochem. Biophys. Rec. Common. 104:937-943, (1982). The ability of compounds tested at 10^-6 and 10^-7 M to enhance [^3 H]nitredepine binding was taken as indicative of diltiazem-like calcium antagonistic properties.
Values are the mean ± SEM of single experiments run in triplicate at
the concentrations of drugs indicated. Ligand concentration was 0.1 nM an
control specific binding was 49.6 ± 1.7 fmol/mg protein.

Experiment [4] has as its system calcium ion-channel protein. To be noted: [^3 H]nitrendipine as the ligand; cited from earlier work.

T1 sequence (O35505 whole entry): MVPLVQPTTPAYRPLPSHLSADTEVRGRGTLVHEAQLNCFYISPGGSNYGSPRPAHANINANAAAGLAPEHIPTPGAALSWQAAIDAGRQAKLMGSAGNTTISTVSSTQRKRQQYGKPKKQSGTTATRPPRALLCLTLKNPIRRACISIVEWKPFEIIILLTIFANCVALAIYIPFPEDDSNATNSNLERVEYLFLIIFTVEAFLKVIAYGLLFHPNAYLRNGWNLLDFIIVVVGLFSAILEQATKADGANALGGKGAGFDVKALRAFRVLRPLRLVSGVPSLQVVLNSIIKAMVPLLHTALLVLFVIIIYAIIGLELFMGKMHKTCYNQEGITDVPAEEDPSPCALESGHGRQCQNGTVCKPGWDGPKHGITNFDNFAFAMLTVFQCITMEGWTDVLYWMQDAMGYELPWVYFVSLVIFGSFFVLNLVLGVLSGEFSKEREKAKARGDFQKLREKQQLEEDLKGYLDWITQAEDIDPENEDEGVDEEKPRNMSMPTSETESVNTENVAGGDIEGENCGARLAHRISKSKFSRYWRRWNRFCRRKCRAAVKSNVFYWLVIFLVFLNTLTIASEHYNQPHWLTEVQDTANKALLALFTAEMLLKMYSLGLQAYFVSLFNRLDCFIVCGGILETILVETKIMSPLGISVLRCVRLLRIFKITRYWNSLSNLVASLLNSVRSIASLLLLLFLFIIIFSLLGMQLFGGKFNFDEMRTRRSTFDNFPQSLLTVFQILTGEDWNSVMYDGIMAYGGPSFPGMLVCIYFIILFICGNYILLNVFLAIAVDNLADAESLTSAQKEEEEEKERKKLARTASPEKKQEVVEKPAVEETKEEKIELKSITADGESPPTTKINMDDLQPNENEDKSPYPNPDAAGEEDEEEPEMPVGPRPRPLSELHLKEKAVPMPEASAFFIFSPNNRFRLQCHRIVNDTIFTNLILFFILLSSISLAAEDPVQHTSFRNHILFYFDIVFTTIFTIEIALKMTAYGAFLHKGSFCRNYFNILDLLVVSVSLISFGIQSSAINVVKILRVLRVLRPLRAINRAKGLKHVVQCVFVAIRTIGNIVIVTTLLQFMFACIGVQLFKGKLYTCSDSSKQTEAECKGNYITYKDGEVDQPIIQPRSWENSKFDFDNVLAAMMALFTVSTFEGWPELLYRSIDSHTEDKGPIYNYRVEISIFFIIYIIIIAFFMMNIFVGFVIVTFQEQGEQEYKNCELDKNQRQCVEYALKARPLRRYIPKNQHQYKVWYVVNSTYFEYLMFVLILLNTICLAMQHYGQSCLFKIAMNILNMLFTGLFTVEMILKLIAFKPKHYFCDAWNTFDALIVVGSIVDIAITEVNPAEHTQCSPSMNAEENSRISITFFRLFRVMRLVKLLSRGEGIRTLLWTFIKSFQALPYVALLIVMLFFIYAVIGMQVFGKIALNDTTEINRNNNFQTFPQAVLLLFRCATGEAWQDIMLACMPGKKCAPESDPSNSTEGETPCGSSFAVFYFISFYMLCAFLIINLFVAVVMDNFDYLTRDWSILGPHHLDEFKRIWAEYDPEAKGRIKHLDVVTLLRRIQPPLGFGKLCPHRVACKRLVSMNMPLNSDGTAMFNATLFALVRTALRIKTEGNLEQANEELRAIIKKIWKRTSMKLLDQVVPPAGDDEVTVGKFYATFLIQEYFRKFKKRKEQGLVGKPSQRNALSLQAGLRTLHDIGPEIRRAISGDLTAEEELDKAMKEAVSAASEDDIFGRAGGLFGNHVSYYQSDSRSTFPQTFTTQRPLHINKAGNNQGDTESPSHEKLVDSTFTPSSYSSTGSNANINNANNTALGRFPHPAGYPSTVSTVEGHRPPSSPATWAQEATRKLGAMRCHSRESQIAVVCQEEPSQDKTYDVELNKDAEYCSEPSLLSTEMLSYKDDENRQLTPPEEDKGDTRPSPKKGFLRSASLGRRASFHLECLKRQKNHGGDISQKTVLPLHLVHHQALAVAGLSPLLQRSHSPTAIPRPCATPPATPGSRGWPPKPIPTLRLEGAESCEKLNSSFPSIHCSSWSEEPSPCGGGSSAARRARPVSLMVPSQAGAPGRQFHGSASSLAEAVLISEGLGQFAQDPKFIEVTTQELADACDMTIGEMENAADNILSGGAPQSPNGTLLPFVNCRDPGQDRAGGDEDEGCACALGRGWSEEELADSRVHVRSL

The term pA2 denotes a measure of antagonist potency on a negative log scale. A high value points to higher antagonist potency. `CCCC(CN=C1CCCCN1)(c1ccccc1)c1ccccc1` [Test Compound 7, 2-[(2,2-diphenylpentyl)imino]piperidine] showed a pA2 in experiment [1] (listed as 7) of 6.15.
`c1ccc(C(CN=C2CCCCCN2)c2ccccc2)cc1` [Test Compound 21, hexahydro-2-(2,2-diphenylethylimino)azepine] gave a pA2 in experiment [1] of 6.14.
Regarding `CCCC(CN=C1CCCCCCN1)(c1ccccc1)c1ccccc1` [Test Compound 24, 2-[(2,2-diphenylpentyl)imino]octahydroazocine], the pA2 in experiment [1] (listed as 24) came to 6.63.
As a reminder, the pKi is the negative decadic logarithm of the Ki, by convention in mol/L. `Clc1ccc(C(N=C2CCCCCN2)c2ccc(Cl)cc2)cc1` [Test Compound 10, 2-[(p-chloro-α-[p-chlorophenyl]benzyl)imino]hexahydroazepine]: in experiment [2] (25° C.), the pKi turned out to be 6.08. Also, the pA2 in experiment [1] is 6.33.
The matching figures for `C1CCNC(=NC2C3CC4CC(C3)CC2C4)CC1` (stereo not shown) [Test Compound 13, 2-(2-adamantanylimino)hexahydroazepine]: 4.70 and 5.47.
On the same counts, the results for `C1CCNC(=N[C@@H]2CCC[C@@H]2C2CCCCC2)CC1` (relative stereo) [Test Compound 12, 2-[(cis-2-cyclohexylcyclopentyl)imino]hexahydroazepine] are 5.54 and 5.54.
With `C1CCCCCNC(=NC2CC3CCC2C3)CCCCC1` (stereo not shown) [Test Compound 4, 2-(2-norbornylimino)azacyclotridecane], in experiment [2] (25° C.), the pKi turned out to be 5.92. Besides, in experiment [1], the pA2 turned out to be 6.07. Also, in experiment [3] (25° C.), the activity at 1 µM amounted to 106 ± 4% and the activity at 0.1 µM worked out at 105 ± 4%. Moreover, in experiment [3] (37° C.), the activity at 1 µM came out at 116 ± 8% and the activity at 0.1 µM amounted to 108 ± 7%.
In the case of `c1ccc([C@H]2CCC[C@H]2N=C2CCCCCCCN2)cc1` (relative stereo) [Test Compound 14, octahydro-2-[(cis-2-phenylcyclopentyl)imino]azonine], in experiment [2] (25° C.), the negative logarithm of the Ki (pKi) came out at 5.26. The molecule further showed a pA2 in experiment [1] of 4.84.
Usually IC50 stands for the concentration that inhibits the measured activity by half. As for `COc1cc(CN=C2NCCC2=Cc2ccc(C)cc2)ccc1O` [Test Compound 19, 2-methoxy-4-[[[3-[(4-methylphenyl)methylene]-2-pyrrolidinyliden]amino]methyl]phenol], the IC50 in experiment [2] (25° C.) turned out to be 1260 ± 90 nM; in experiment [2] (37° C.), 1900 ± 230 nM.
In turn, `CCCC(CN=C1CCCCCN1)(c1ccccc1)c1ccccc1` [Test Compound 6, hexahydro-2-[(2,2-diphenylpentyl)imino]azepine] displayed a pA2 in experiment [1] (listed as 6) of 6.64.
As to `FC(F)(F)c1cccc(C(N=C2CCCCCN2)c2ccccc2)c1` (stereo not shown) [Test Compound 11, hexahydro-N-[phenyl[3-(trifluoromethyl)phenyl]methyl]-2H-azepin-2-imine], in experiment [2] (25° C.), the pKi amounted to 5.92. Also, in experiment [1], the pA2 is 5.60.
For `c1ccc([C@@H]2CCC[C@@H]2N=C2CCCN2)cc1` (relative stereo) [Test Compound 16], the pKi in experiment [2] (25° C.) is given as 4.96.
Take `CCCC(CN=C1CCCCCCN1)(c1ccccc1)c1ccccc1` [Test Compound 5, 2-[(2,2-diphenylpentyl)imino]octahydroazocine]: the pA2 in experiment [1] (listed as 5) worked out at 6.60. In addition, in experiment [3] (37° C.), the activity at 1 µM came to 122 ± 3% and the activity at 0.1 µM worked out at 111 ± 9%.
With `c1ccc(C(N=C2CCCCCCN2)C23CC4CC(CC(C4)C2)C3)cc1` (stereo not drawn) [Test Compound 8, 2-[[α-(1-adamantanyl)benzyl]imino]octahydroazocine], in experiment [2] (25° C.), the pKi was 6.72. This molecule gave a pA2 in experiment [1] of 6.63.
Consider `COc1ccc(CCN(C)CCCC(C#N)(c2ccc(OC)c(OC)c2)C(C)C)cc1OC` (stereo not shown) [verapamil], for which the “effect on [^3 H]nitrendipine binding” value in experiment [4] is “displaces [^3 H]nitrendipine in a non-competitive manner”.
In experiment [1] (listed as 23), `CCCC(CN=C1CCCCN1)(c1ccccc1)c1ccccc1` [Test Compound 23, 2-[(2,2-diphenylpentyl)imino]piperidine] displayed a pA2 of 6.04.
Turning to `CCCC(CN=C1CCCCCCCCCCCN1)(c1ccccc1)c1ccccc1` [Test Compound 1, N-(2,2-diphenylpentyl)azacyclotridecan-2-imine], the pKi in experiment [2] (25° C.) turned out to be 6.49. Also, in experiment [1], the “mean pA2 value (95% confidence interval), Schild plot” value is 7.27 (6.95-8.12) and the “mean slope (±S.D.) of Schild plot” value was 0.94 (0.21). Further, in experiment [3] (25° C.), the activity at 1 µM is 123 ± 6% and the activity at 0.1 µM was 119 ± 6%. In experiment [3] (37° C.), the activity at 1 µM came out at 224 ± 14% and the activity at 0.1 µM came out at 252 ± 13%.
As for `CC(N=C1CCCCCN1)c1cccc2ccccc12` (single isomer, unassigned; (-)) [Test Compound 26, (-)-hexahydro-N-[1-(1-naphthalenyl)ethyl]2H-azepin-2-imine], the pA2 in experiment [1] is recorded as 5.18.
`CCCC(CN=C1CCCCCN1)(c1ccccc1)c1ccccc1` [Test Compound 22, hexahydro-2-[(2,2-diphenylpentyl)imino]azepine] registered a pA2 in experiment [1] (listed as 22) of 6.31.
In experiment [1], `c1ccc(C(CCN=C2CCCCCN2)c2ccccc2)cc1` [Test Compound 20, hexahydro-2-[3,3-diphenylpropylimino)azepine] gave a pA2 of 6.19.
Take `c1ccc(-c2ccccc2N=C2CCCCCCCCCCCN2)cc1` [Test Compound 2, 2-(o-biphenylylimino)azacyclotridecane]: the “mean pA2 value (95% confidence interval), Schild plot” value in experiment [1] was 6.59 (6.33-7.17). In experiment [3] (25° C.), the activity at 1 µM amounted to 123 ± 10% and the activity at 0.1 µM came to 117 ± 7%. Besides, in experiment [3] (37° C.), the activity at 1 µM stood at 152 ± 15% and the activity at 0.1 µM is 152 ± 9%.
Turning to `COc1ccc([C@@H]2Sc3ccccc3N(CCN(C)C)C(=O)[C@@H]2OC(C)=O)cc1` [Test Compound 17, (1)-cis-5-2-(dimethylamino)etnyl]2,3-dihydro-3-hydroxy-2-(p-methoxyphenyl)-1,5-benzothiazepin-4(5H)-one acetate, reference compound], the “effect on [^3 H]nitrendipine binding” value in experiment [4] is given as “enhances binding”. Further, in experiment [1], the “mean slope (±S.D.) of Schild plot” value is given as 1.00 (0.15). Moreover, the activity at 1 µM was 83 ± 8% in experiment [3] (25° C.) and 262 ± 10% in experiment [3] (37° C.). Moreover, the activity at 0.1 µM stood at 96 ± 5% in experiment [3] (25° C.) and 218 ± 4% in experiment [3] (37° C.).
For `CCCCOc1ccc(C(N=C2CCCCCN2)c2ccccc2)cc1` (stereo not drawn) [Test Compound 9, 2-[(p-butoxy-α-phenylbenzyl)imino]hexahydroazepine], the pKi in experiment [2] (25° C.) amounted to 6.17. In addition, in experiment [1], the pA2 stood at 5.86.
In the case of `c1ccc([C@H]2CCC[C@H]2N=C2CCCCCN2)cc1` (relative stereo) [Test Compound 15, hexahydro-2-[(cis-2-phenylcyclopentyl)imino]azepine], the pKi in experiment [2] (25° C.) amounted to 4.16.
`CC(N=C1CCCCCN1)c1cccc2ccccc12` (single isomer, unassigned; (+)) [Test Compound 25, (+)-hexahydro-N-[1-(1-naphthalenyl)ethyl]2H-azepin-2-imine] came in with a pA2 in experiment [1] of 5.47.
